Laboratory results as given in patent US20090298864A1, “Methods for Treating Mild Cognitive Impairment” (The Trustees of Columbia University in the City of New York, priority 2005, published 2009).
Entries after “also recorded” stand apart in the source; their conditions may differ.

Assays:
APP mice = assay: Contextual fear learning (freezing) in APP mouse model of mild cognitive impairment; type: in vivo; conditions: single transgenic APP mice, 3-5 months old; rolipram 0.3 mg/kg vs vehicle; freezing measured 24 hours after training; FIG. 1
Description: (§1) The effect of rolipram on contextual fear learning in APP mice was determined according to the methods set forth in Gong et al., J Clin Invest. 114(11):1624-34 (2004), which are described briefly as follows:
(§2) Three to five month old single transgenic APP and WT mice were separated into four groups: APP mice treated with vehicle (“APP control group”), APP mice treated with rolipram at 0.3 mg/kg (“APP rolipram group”), WT mice treated with vehicle (“control vehicle group”), and WT mice treated with rolipram at 0.3 mg/kg (“control rolipram group”). 30 minutes after treatment with either vehicle or rolipram, the mice were placed in a conditioning chamber and subjected to a series of electrical shocks to the feet. Animal behavior was evaluated for three types of response to the shocks (flinching, jumping and screaming) and thresholds for various types of responses were determined for each animal
(§3) Mice were placed in the conditioning chamber for about 2 minutes, then an auditory tone was given for about 30 seconds. During the last two seconds of the tone, the mice were given a foot shock. The mice were left in the conditioning chamber for about 30 seconds, then were returned to their home cages. […]
(§4) To evaluate contextual fear learning, freezing was measured for 5 consecutive minutes in the conditioning chamber 24 hours after training.

WT mice = assay: Contextual fear learning (freezing) in WT control mice; type: in vivo, mouse; conditions: rolipram 0.3 mg/kg vs vehicle, freezing measured 24 hours after training, FIG. 1
Description: as §1, §2, §3, §4

[1] = test system: mouse model of Alzheimer's disease; conditions: brief treatment of a mouse model of Alzheimer's disease; cited from earlier work

COc1ccc(C2CNC(=O)C2)cc1OC1CCCC1 (stereo not drawn) [rolipram]
freezing in the contextual fear conditioning test (contextual fear learning) (APP mice): much higher incidence of freezing; also recorded: improved contextual fear learning
freezing responses in the contextual fear conditioning test (WT mice): no significant difference
memory (long-term potential and contextual learning) [1]: improves memory in both long-term potential and contextual learning
